Ends that are not written are not given here. PEG = not defined here
Assays:
Type in all cases: cell-based
[1] = tested on: human pancreatic cancer cells (PANC-1); experiment: scratch assay, migration of PANC-1 cells; conditions: PANC-1, 10 μM, 48 hours; control group 66.65 ± 3.37
In short: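 PANC-1 monolayers were scratched, then cultured for 48 h with 10 μM test compound in 2% FBS medium, in three parallel wells per group against a PBS control. Migration rate (%) was calculated as (original minus current scratch width) / original width × 100, from imaged wells.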

[2] = tested on: human pancreatic cancer cells (PANC-1); experiment: transwell invasion assay, PANC-1 cells; conditions: PANC-1 transwell invasion, 10 μM, 24 hours; control group 727 ± 68
In short: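 Serum-free PANC-1 cells were seeded in matrigel-coated upper chambers with complete medium below. After 4-5 hours at 37° C., peptide was added at 10 μM final. Following 24 hours, invaded cells on the lower membrane surface were fixed, crystal violet-stained, imaged and counted against untreated controls.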

[3] = tested on: human liver adenocarcinoma cells (SK-HEP-1); experiment: transwell invasion assay, SK-HEP-1 cells; conditions: SK-HEP-1 transwell invasion, 10 μM, 24 hours; control group 767 ± 91
In short: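 Serum-free SK-HEP-1 cells were seeded in matrigel-coated upper chambers over complete medium. After 4-5 h, peptide was added to the upper chamber at 10 μM final. Following 24 h at 37° C., invaded cells were fixed, crystal violet-stained, imaged and counted.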

[4] = tested on: human liver cancer cells (HepG2); experiment: scratch assay, migration of HepG2 cells; conditions: HepG2, 10 μM, 48 hours; control group 71.01 ± 6.63
In short: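 HepG2 monolayers scratched, then cultured 48 h in 2% FBS medium with test polypeptides at 10 μM versus PBS control, triplicate wells. Migration rate (%) computed from original versus current scratch width in images.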

[5] = tested on: human breast cancer cells (MDA-MB-231); experiment: scratch assay, migration of MDA-MB-231 cells; conditions: MDA-MB-231, 10 μM, 48 hours; control group 36.19 ± 5.15
In short: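 MDA-MB-231 monolayers (1-2×10^5 cells/well) were scratched, then kept 48 h in medium with 2% FBS containing polypeptide at 10 μM, with a PBS control, in triplicate wells. Migration rate (%) was taken from scratch width: (original − current)/original ×100.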

[6] = tested on: human breast cancer cells (MCF-7); experiment: scratch assay, migration of MCF-7 cells; conditions: MCF-7, 10 μM, 48 hours; control group 30.97 ± 1.79
In short: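 MCF-7 monolayers scratched, then cultured 48 hours in 2% FBS medium with test peptide at 10 μM versus PBS control, triplicate wells. Migration rate (%) = (original − current scratch width)/original width × 100, measured from images.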

[7] = tested on: human melanoma cells (A375); experiment: scratch assay, migration of A375 cells; conditions: A375, 10 μM, 48 hours; control group 44.03 ± 6.21
In short: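 Monolayers scratched, washed with PBS and cultured 48 hours in 2% FBS medium with polypeptides N1-N54 at 10 μM or PBS control, three wells per group. Migration rate (%) = (original − current scratch width)/original width×100, from imaged scratch widths.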

[8] = tested on: human pharyngeal squamous-cell carcinoma cells (Fadu); experiment: scratch assay, migration of Fadu cells; conditions: 10 μM, 48 hours, control group 28.76 ± 4.08
In short: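 Confluent Fadu monolayers scratched, then cultured 48 h with 10 μM polypeptide in medium with 2% FBS; PBS control, triplicate wells. Migration rate (%) = (original − current scratch width)/original width × 100, from ≥3 images per well.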

[9] = tested on: human colon cancer cells (HCT-116); experiment: scratch assay, migration of HCT-116 cells; conditions: HCT-116, 10 μM, 48 hours; control group 47.78 ± 6.07
In short: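 Confluent HCT-116 monolayers were scratched, washed and cultured 48 h in 2% FBS medium with peptide at 10 μM versus PBS control, triplicate wells. Migration rate (%) = (original minus current scratch width)/original width × 100, from at least 3 images per well.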

[10] = tested on: human prostate cancer cells (22RV1); experiment: scratch assay, migration of 22RV1 cells; conditions: 22RV1, 10 μM, 48 hours; control group 25.41 ± 5.01
In short: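 22RV1 monolayers (seeded 1-2×10^5 cells/well) were scratched, washed, then given 2% FBS medium with 10 μM polypeptide or PBS, triplicate wells, for 48 h. Migration rate (%) = (original − current scratch width)/original width ×100, from ≥3 images per well.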

Substance | Migration rate (%) (mean ± SD, P) [1] | Number of cells (mean ± SD, P), invaded cells [2] | Number of cells (mean ± SD, P), invaded cells [3] | Migration rate (%) (mean ± SD, P) [4] | Migration rate (%) (mean ± SD, P) [5] | Migration rate (%) (mean ± SD, P) [6] | Migration rate (%) (mean ± SD, P) [7] | Migration rate (%) (mean ± SD, P) [8] | Migration rate (%) (mean ± SD, P) [9] | Migration rate (%) (mean ± SD, P) [10]
N22: SEQ ID NO: 1 with substitution A7R, deletion of three amino acids at the amino terminal and of positions 15-18 (RFLRKENVTQD) | 11.44 ± 8.52,*** % | 220 ± 65,**** | 430 ± 51,** | 18.61 ± 8.35,*** % | 16.94 ± 3.17,* % | 8.79 ± 3.01,** % | 5.12 ± 3.69,*** % | 15.11 ± 4.99,* % | 7.78 ± 3.07,*** % | 6.10 ± 2.72,** %
N39: SEQ ID NO: 1 with addition of two amino acids and PEG modification at the carboxyl terminal (YRVRFLAKENVTQDAEDNTC-{PEG}; reading uncertain) | 16.29 ± 8.00,*** % | 278 ± 16,**** | 88 ± 25,**** | 15.73 ± 6.79,*** % | 19.08 ± 3.17,* % | 7.74 ± 2.46,** % | 9.21 ± 3.20,*** % | 18.48 ± 5.74,* % | 4.29 ± 2.88,*** % | 4.21 ± 2.81,** %
N29: SEQ ID NO: 1 with deletion of positions 1-5 and 15-18 and PEG modification at the amino terminal ({PEG}-LAKENVTQD; reading uncertain) | 40.62 ± 4.97,* % | 213 ± 17,**** | 322 ± 56,*** | 10.62 ± 8.97,*** % | 18 ± 4.47,* % | 19.15 ± 3.04,* % | 14.01 ± 4.22,*** % | 12.27 ± 2.23,** % | 8.24 ± 2.32,*** % | 9.99 ± 3.89,* %
N53: SEQ ID NO: 1 with A15R, one amino acid added at each terminal, PEG modification at the carboxyl terminal (FYRVRFLAKENVTQDREDNC-{PEG}; reading uncertain) | 15.85 ± 7.32,*** % | 228 ± 25,**** | 143 ± 19,**** | 35.85 ± 4.32,** % | 18.05 ± 6.08,* % | 9.45 ± 2.39,** % | 18.83 ± 4.71,** % | 13.8 ± 3.05,** % | 14.42 ± 3.21,*** % | 10.75 ± 3.22,* %
N5: SEQ ID NO: 1 with addition of one amino acid at the carboxyl terminal and deletion of positions 1-3 (RFLAKENVTQDAEDNC) | 21.63 ± 6.16,*** % | 109 ± 7,**** | 353 ± 52,*** | 19.84 ± 5.04,*** % | 22.13 ± 3.22,* % | 14.50 ± 2.66,** % | 9.82 ± 3.84,*** % | 9.07 ± 2.08,*** % | 12.75 ± 2.82,*** % | 10.37 ± 3.53,* %
N23: SEQ ID NO: 1 with substitution A7R, deletion of position 11 and of positions 15-18 (YRVRFLRKENTQDAED) | 14.16 ± 8.36,*** % | 196 ± 26,**** | 456 ± 45,** | 17.22 ± 7.12,*** % | 14.39 ± 2.33,** % | 10.20 ± 2.86,** % | 11.13 ± 2.15,*** % | 16.93 ± 3.67,* % | 13.08 ± 2.64,*** % | 5.7 ± 3.23,** %
N34: SEQ ID NO: 1 with A15R, addition of one amino acid at the carboxyl terminal, PEG modification at the amino terminal ({PEG}-YRVRFLAKENVTQDREDNC; reading uncertain) | 28.58 ± 3.87,*** % | 346 ± 30,*** | 187 ± 38,**** | 18.58 ± 7.87,*** % | 17.34 ± 4.82,* % | 15.23 ± 4.39,* % | 15.11 ± 2.01,*** % | 7.38 ± 2.85,*** % | 17.96 ± 3.84,** % | 5.00 ± 2.29,** %
N9: SEQ ID NO: 1 with deletion of positions 15-18 and PEG modification at the amino terminal ({PEG}-YRVRFLAKENVTQD; reading uncertain) | 29.12 ± 5.84,*** % | 93 ± 6,**** | 288 ± 35,*** | 35.11 ± 5.16,** % | 15.96 ± 3.92,* % | 5.28 ± 2.11,*** % | 8.96 ± 2.46,*** % | 16.82 ± 3.57,* % | 25.96 ± 3.84,** % | 14.84 ± 2.96,* %
N32: SEQ ID NO: 1 with deletion of positions 1-3, addition of one amino acid and PEG modification at the carboxyl terminal (RFLAKENVTQDAEDNC-{PEG}; reading uncertain) | 15.49 ± 8.35,*** % | 251 ± 10,**** | 252 ± 7,**** | 15.49 ± 8.35,*** % | 13.33 ± 3.83,** % | 14.18 ± 2.82,** % | 18.22 ± 3.95,** % | 14.63 ± 4.96,* % | 8.17 ± 1.07,*** % | 8.68 ± 1.66,** %
N52: SEQ ID NO: 1 with N18R, addition of two amino acids and PEG modification at the carboxyl terminal (YRVRFLAKENVTQDAEDRCT-{PEG}; reading uncertain) | 23.11 ± 4.27,*** % | 237 ± 27,**** | 132 ± 29,**** | 15.39 ± 7.19,*** % | 13.19 ± 4.84,** % | 7.23 ± 2.41,** % | 19.57 ± 2.21,** % | 7.76 ± 2.08,*** % | 18.71 ± 3.59,** % | 5.43 ± 1.97,** %

From US20220280594A1, “APPLICATION OF POLYPEPTIDE OR DERIVATIVE THEREOF” (CHENGDU HUITAI BIOMEDICINE CO., LTD., priority 2019, published 2022)
